Results as given in PubChem BioAssay (NCI).
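96-well plates; 48 h exposure; 5 concentrations. Endpoints by linear interpolation between flanking doses. Not reached: highest tested concentration assigned. At the TGI there is no net growth.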

Legend:
Assay in all cases: DTP human tumour cell line panel, 48 h
[1] = tested on: SF-539 CNS
[2] = tested on: MOLT-4 leukemia
[3] = tested on: MCF7 breast
[4] = tested on: UACC-257 melanoma
[5] = tested on: OVCAR-3 ovarian
[6] = tested on: M14 melanoma
[7] = tested on: BT-549 breast
[8] = tested on: T-47D breast
[9] = tested on: MDA-MB-231 breast
[10] = tested on: CCRF-CEM leukemia
[11] = tested on: NCI-H460 lung
[12] = tested on: SF-295 CNS
[13] = tested on: COLO 205 colon
[14] = tested on: NCI/ADR-RES ovarian
[15] = tested on: HL-60(TB) leukemia
[16] = tested on: RPMI-8226 leukemia
[17] = tested on: KM12 colon
[18] = tested on: HOP-62 NSCLC
[19] = tested on: HCT-116 colon
[20] = tested on: HS 578T breast
[21] = tested on: U251 CNS
[22] = tested on: HOP-92 NSCLC
[23] = tested on: K-562 leukemia
[24] = tested on: OVCAR-5 ovarian
[25] = tested on: A498 renal
[26] = tested on: TK-10 renal
[27] = tested on: MDA-N
[28] = tested on: ACHN renal
[29] = tested on: SK-MEL-2 melanoma
[30] = tested on: OVCAR-4 ovarian
[31] = tested on: SR leukemia
[32] = tested on: SNB-19 CNS
[33] = tested on: SK-MEL-28 melanoma
[34] = tested on: RXF 393 renal
[35] = tested on: HT29 colon
[36] = tested on: EKVX NSCLC
[37] = tested on: SK-OV-3 ovarian
[38] = tested on: SW-620 colon
[39] = tested on: SK-MEL-5 melanoma
[40] = tested on: SF-268 CNS
[41] = tested on: IGROV1 ovarian
[42] = tested on: UO-31 renal
[43] = tested on: UACC-62 melanoma
[44] = tested on: OVCAR-8 ovarian
[45] = tested on: HCT-15 colon
[46] = tested on: SN12C renal
[47] = tested on: A549 NSCLC
[48] = tested on: 786-0 renal
[49] = tested on: LOX IMVI melanoma
[50] = tested on: MDA-MB-435
[51] = tested on: HCC-2998 colon
[52] = tested on: PC-3 prostate
[53] = tested on: DU-145 prostate
[54] = tested on: CAKI-1 renal
[55] = tested on: NCI-H226 lung
[56] = tested on: SNB-75 CNS
[57] = tested on: MALME-3M melanoma
[58] = tested on: NCI-H23 lung
[59] = tested on: NCI-H522 lung

Compound: O=C1/C(=C/Cc2ccco2)N=C(c2ccccc2)N1c1nc2c(Cl)cc(Cl)cc2s1
- TGI [1]: 61.3 µM
- TGI [2]: 33.3 µM
- TGI [3]: > 100 µM
- TGI [4]: > 100 µM
- TGI [5]: 52.6 µM
- TGI [6]: > 100 µM
- TGI [7]: 83.5 µM
- TGI [8]: 73.5 µM
- TGI [9]: 82.2 µM
- TGI [10]: 39.8 µM
- TGI [11]: > 100 µM
- TGI [12]: > 100 µM
- TGI [13]: > 100 µM
- TGI [14]: 84.5 µM
- TGI [15]: 49.9 µM
- TGI [16]: 35.4 µM
- TGI [17]: > 100 µM
- TGI [18]: > 100 µM
- TGI [19]: 81.2 µM
- TGI [20]: 57.4 µM
- TGI [21]: 83.5 µM
- TGI [22]: 87.4 µM
- TGI [23]: > 100 µM
- TGI [24]: > 100 µM
- TGI [25]: 43.4 µM
- TGI [26]: > 100 µM
- TGI [27]: 47.9 µM
- TGI [28]: 74.6 µM
- TGI [29]: 63.5 µM
- TGI [30]: 75.6 µM
- TGI [31]: 38.7 µM
- TGI [32]: > 100 µM
- TGI [33]: > 100 µM
- TGI [34]: 40.6 µM
- TGI [35]: 98.2 µM
- TGI [36]: 76.2 µM
- TGI [37]: > 100 µM
- TGI [38]: > 100 µM
- TGI [39]: > 100 µM
- TGI [40]: 89.2 µM
- TGI [41]: > 100 µM
- TGI [42]: 72.8 µM
- TGI [43]: > 100 µM
- TGI [44]: > 100 µM
- TGI [45]: > 100 µM
- TGI [46]: > 100 µM
- TGI [47]: 80.7 µM
- TGI [48]: > 100 µM
- TGI [49]: > 100 µM
- TGI [50]: 60.1 µM
- TGI [51]: > 100 µM
- TGI [52]: 74.8 µM
- TGI [53]: > 100 µM
- TGI [54]: > 100 µM

Compound: CN1CCN(C2CC(=O)c3c(Cl)sc(Cl)c32)CC1 (configuration not stated)
- TGI [1]: 49.6 µM
- TGI [2]: > 51.9 µM
- TGI [3]: > 100 µM
- TGI [4]: > 61.5 µM
- TGI [55]: > 65.3 µM
- TGI [5]: 38.7 µM
- TGI [56]: 41.5 µM
- TGI [6]: 20.7 µM
- TGI [7]: > 52.2 µM
- TGI [8]: > 45.9 µM
- TGI [9]: 48 µM
- TGI [10]: 14.6 µM
- TGI [11]: > 75.3 µM
- TGI [12]: > 31.6 µM
- TGI [13]: > 53.4 µM
- TGI [14]: > 59 µM
- TGI [15]: 46 µM
- TGI [16]: 15.5 µM
- TGI [17]: 30.9 µM
- TGI [18]: 42.6 µM
- TGI [19]: 19.2 µM
- TGI [20]: > 23.7 µM
- TGI [57]: > 50.3 µM
- TGI [21]: 36 µM
- TGI [22]: > 27 µM
- TGI [23]: > 100 µM
- TGI [24]: > 60.8 µM
- TGI [25]: > 75 µM
- TGI [26]: > 61 µM
- TGI [27]: 35 µM
- TGI [28]: 36.6 µM
- TGI [29]: > 59.9 µM
- TGI [30]: > 42.9 µM
- TGI [31]: > 100 µM
- TGI [32]: > 100 µM
- TGI [33]: 20.2 µM
- TGI [35]: 33.7 µM
- TGI [36]: > 55.5 µM
- TGI [58]: 30.3 µM
- TGI [37]: > 90 µM
- TGI [38]: 22.2 µM
- TGI [39]: > 56.4 µM
- TGI [40]: > 31.1 µM
- TGI [59]: 13.3 µM
- TGI [41]: > 25.6 µM
- TGI [42]: 17 µM
- TGI [43]: 34.1 µM
- TGI [44]: > 21.3 µM
- TGI [45]: > 31.6 µM
- TGI [46]: 30 µM
- TGI [47]: > 52.9 µM
- TGI [48]: 21.8 µM
- TGI [49]: 3.83 µM
- TGI [50]: 16.5 µM
- TGI [51]: 24.6 µM
- TGI [52]: > 100 µM
- TGI [53]: 30.2 µM
- TGI [54]: 39.6 µM

Compound: C[C@@H]1CC(=O)[C@@]2(C)[C@](O)(CCC3O[C@]32C)[C@@]12CC(c1ccoc1)OC2=O (some centres not stated)
- TGI [1]: > 100 µM
- TGI [2]: 58.5 µM
- TGI [3]: > 100 µM
- TGI [4]: > 100 µM
- TGI [55]: > 100 µM
- TGI [5]: > 100 µM
- TGI [56]: > 100 µM
- TGI [6]: > 100 µM
- TGI [7]: > 100 µM
- TGI [8]: > 100 µM
- TGI [9]: > 100 µM
- TGI [10]: 59.8 µM
- TGI [11]: > 100 µM
- TGI [12]: > 100 µM
- TGI [13]: > 100 µM
- TGI [14]: > 100 µM
- TGI [15]: 62.8 µM
- TGI [16]: > 100 µM
- TGI [17]: > 100 µM
- TGI [19]: > 100 µM
- TGI [20]: > 100 µM
- TGI [57]: > 100 µM
- TGI [21]: > 100 µM
- TGI [23]: > 100 µM
- TGI [24]: > 100 µM
- TGI [25]: > 100 µM
- TGI [26]: > 100 µM
- TGI [27]: > 100 µM
- TGI [28]: > 100 µM
- TGI [29]: > 100 µM
- TGI [30]: > 100 µM
- TGI [31]: 68.5 µM
- TGI [32]: > 100 µM
- TGI [33]: > 100 µM
- TGI [34]: 88.6 µM
- TGI [35]: > 100 µM
- TGI [36]: > 100 µM
- TGI [58]: > 100 µM
- TGI [37]: > 100 µM
- TGI [38]: > 100 µM
- TGI [39]: > 100 µM
- TGI [59]: > 100 µM
- TGI [41]: > 100 µM
- TGI [42]: > 100 µM
- TGI [43]: > 100 µM
- TGI [44]: > 100 µM
- TGI [45]: > 100 µM
- TGI [47]: > 100 µM
- TGI [48]: > 100 µM
- TGI [49]: > 100 µM
- TGI [50]: > 100 µM
- TGI [51]: > 100 µM
- TGI [52]: > 100 µM
- TGI [53]: > 100 µM
- TGI [54]: > 100 µM
